Data: ChEMBL document CHEMBL3885861, “Open TG-GATES”

Species on record: Rattus norvegicus
Test: Open TG-GATES - Regimen: Daily Repeat
Type: toxicity, organism-based, Sprague-Dawley
Parameters: regimen Daily Repeat, gender Male, age 6 weeks
Conditions: in vivo, po, 5 mg/kg, route gavage, dose level Low; for APTT / Bas / Eos / Fbg / Hb / Ht / Lym / MCH / MCHC / MCV / Mono / Neu / PT / Plat / RBC / Ret / WBC: tissue Blood; for KIDNEY_L / KIDNEY_R / KIDNEY_TOTAL: tissue Kidney; for LIVER: tissue Liver; for A/G / ALP / ALT / AST / BUN / CRE / Ca / Cl / DBIL / GLC / IP / K / LDH / Na / PL / RALB / TBIL / TC / TG / TP / gamma-GTP: tissue Plasma

CC(=N)S [THIOACETAMIDE]
TERMINAL_BW (72 h, time 3 day): 228.6 g
APTT (72 h, time 3 day): 16.9 s
Bas (72 h, time 3 day): 0%
Eos (72 h, time 3 day): 1%
Fbg (72 h, time 3 day): 234 mg/dL
Hb (72 h, time 3 day): 13.6 g/dL
Ht (72 h, time 3 day): 41.4%
Lym (72 h, time 3 day): 78.8%
MCH (72 h, time 3 day): 21 pg
MCHC (72 h, time 3 day): 32.9%
MCV (72 h, time 3 day): 63.8 fL
Mono (72 h, time 3 day): 8.2%
Neu (72 h, time 3 day): 12.2%
PT (72 h, time 3 day): 11.6 s
Plat (72 h, time 3 day): 111 x10_4/uL
RBC (72 h, time 3 day): 649.4 x10_4/ul
Ret (72 h, time 3 day): 6.6%
WBC (72 h, time 3 day): 139.8 x10_2/uL
KIDNEY_L (72 h, time 3 day): 1 g
KIDNEY_R (72 h, time 3 day): 1.1 g
KIDNEY_TOTAL (72 h, time 3 day): 2.1 g
LIVER (72 h, time 3 day): 11.7 g
A/G (72 h, time 3 day): 2.1
ALP (72 h, time 3 day): 900 IU/L
ALT (72 h, time 3 day): 28 IU/L
AST (72 h, time 3 day): 58.8 IU/L
BUN (72 h, time 3 day): 16.2 mg/dL
CRE (72 h, time 3 day): 0.5 mg/dL
Ca (72 h, time 3 day): 10.7 mg/dL
Cl (72 h, time 3 day): 104.8 meq/L
DBIL (72 h, time 3 day): 0.004 mg/dL
GLC (72 h, time 3 day): 192.6 mg/dL
IP (72 h, time 3 day): 7.8 mg/dL
K (72 h, time 3 day): 4.7 meq/L
LDH (72 h, time 3 day): 95.2 IU/L
Na (72 h, time 3 day): 137 meq/L
PL (72 h, time 3 day): 159.8 mg/dL
RALB (72 h, time 3 day): 4 g/dL
TBIL (72 h, time 3 day): 0.3 mg/dL
TC (72 h, time 3 day): 83.2 mg/dL
TG (72 h, time 3 day): 123.2 mg/dL
TP (72 h, time 3 day): 5.9 g/dL
gamma-GTP (72 h, time 3 day): 2 IU/L
TERMINAL_BW ([…], time 7 day): 252.6 g
TERMINAL_BW ([…], time 14 day): 308.5 g
TERMINAL_BW ([…], time 28 day): 375.1 g
APTT ([…], time 7 day): 16.4 s
Bas ([…], time 7 day): 0%
Eos ([…], time 7 day): 1%
Fbg ([…], time 7 day): 229.2 mg/dL
Hb ([…], time 7 day): 13.8 g/dL
Ht ([…], time 7 day): 41.5%
Lym ([…], time 7 day): 82%
MCH ([…], time 7 day): 20.9 pg
MCHC ([…], time 7 day): 33.3%
MCV ([…], time 7 day): 62.9 fL
Mono ([…], time 7 day): 6.6%
Neu ([…], time 7 day): 10.2%
PT ([…], time 7 day): 12.1 s
Plat ([…], time 7 day): 111.2 x10_4/uL
RBC ([…], time 7 day): 660.4 x10_4/ul
Ret ([…], time 7 day): 5.3%
WBC ([…], time 7 day): 155.6 x10_2/uL
APTT ([…], time 14 day): 17.1 s
Bas ([…], time 14 day): 0%
Eos ([…], time 14 day): 0.8%
Fbg ([…], time 14 day): 231.8 mg/dL
Hb ([…], time 14 day): 14.6 g/dL
Ht ([…], time 14 day): 44.1%
Lym ([…], time 14 day): 83.6%
MCH ([…], time 14 day): 19.8 pg
MCHC ([…], time 14 day): 33.1%
MCV ([…], time 14 day): 59.9 fL
Mono ([…], time 14 day): 6%
Neu ([…], time 14 day): 10%
PT ([…], time 14 day): 12.3 s
Plat ([…], time 14 day): 102 x10_4/uL
RBC ([…], time 14 day): 736.2 x10_4/ul
Ret ([…], time 14 day): 3.9%
WBC ([…], time 14 day): 165.2 x10_2/uL
APTT ([…], time 28 day): 17 s
Bas ([…], time 28 day): 0%
Eos ([…], time 28 day): 0.8%
Fbg ([…], time 28 day): 242.4 mg/dL
Hb ([…], time 28 day): 15 g/dL
Ht ([…], time 28 day): 44.9%
Lym ([…], time 28 day): 85.2%
MCH ([…], time 28 day): 19.6 pg
MCHC ([…], time 28 day): 33.5%
MCV ([…], time 28 day): 58.5 fL
Mono ([…], time 28 day): 3.6%
Neu ([…], time 28 day): 10.4%
PT ([…], time 28 day): 11.1 s
Plat ([…], time 28 day): 111.7 x10_4/uL
RBC ([…], time 28 day): 767.8 x10_4/ul
Ret ([…], time 28 day): 3%
WBC ([…], time 28 day): 184.6 x10_2/uL
KIDNEY_L ([…], time 7 day): 1 g
KIDNEY_R ([…], time 7 day): 1.1 g
KIDNEY_TOTAL ([…], time 7 day): 2.1 g
KIDNEY_L ([…], time 14 day): 1.2 g
KIDNEY_R ([…], time 14 day): 1.2 g
KIDNEY_TOTAL ([…], time 14 day): 2.4 g
KIDNEY_L ([…], time 28 day): 1.3 g
KIDNEY_R ([…], time 28 day): 1.4 g
KIDNEY_TOTAL ([…], time 28 day): 2.7 g
LIVER ([…], time 7 day): 12.3 g
LIVER ([…], time 14 day): 13.6 g
LIVER ([…], time 28 day): 16.5 g
A/G ([…], time 7 day): 1.9
ALP ([…], time 7 day): 742.6 IU/L
ALT ([…], time 7 day): 31.8 IU/L
AST ([…], time 7 day): 56 IU/L
BUN ([…], time 7 day): 18 mg/dL
CRE ([…], time 7 day): 0.5 mg/dL
Ca ([…], time 7 day): 10.5 mg/dL
Cl ([…], time 7 day): 105 meq/L
DBIL ([…], time 7 day): 0.008 mg/dL
GLC ([…], time 7 day): 186.6 mg/dL
IP ([…], time 7 day): 7.6 mg/dL
K ([…], time 7 day): 5.1 meq/L
LDH ([…], time 7 day): 84.8 IU/L
Na ([…], time 7 day): 135.2 meq/L
PL ([…], time 7 day): 160 mg/dL
RALB ([…], time 7 day): 3.9 g/dL
TBIL ([…], time 7 day): 0.3 mg/dL
TC ([…], time 7 day): 76.4 mg/dL
TG ([…], time 7 day): 167.4 mg/dL
TP ([…], time 7 day): 6 g/dL
gamma-GTP ([…], time 7 day): 1.4 IU/L
A/G ([…], time 14 day): 2
ALP ([…], time 14 day): 870.6 IU/L
ALT ([…], time 14 day): 29.8 IU/L
AST ([…], time 14 day): 62 IU/L
BUN ([…], time 14 day): 18.2 mg/dL
CRE ([…], time 14 day): 0.6 mg/dL
Ca ([…], time 14 day): 10.2 mg/dL
Cl ([…], time 14 day): 104.6 meq/L
DBIL ([…], time 14 day): 0.006 mg/dL
GLC ([…], time 14 day): 185.4 mg/dL
IP ([…], time 14 day): 6.8 mg/dL
K ([…], time 14 day): 5 meq/L
LDH ([…], time 14 day): 78.6 IU/L
Na ([…], time 14 day): 134.2 meq/L
PL ([…], time 14 day): 135.8 mg/dL
RALB ([…], time 14 day): 4.1 g/dL
TBIL ([…], time 14 day): 0.4 mg/dL
TC ([…], time 14 day): 61.6 mg/dL
TG ([…], time 14 day): 156.8 mg/dL
TP ([…], time 14 day): 6.2 g/dL
gamma-GTP ([…], time 14 day): 2 IU/L
A/G ([…], time 28 day): 1.6
ALP ([…], time 28 day): 613.4 IU/L
ALT ([…], time 28 day): 25.8 IU/L
AST ([…], time 28 day): 54.6 IU/L
BUN ([…], time 28 day): 21.6 mg/dL
CRE ([…], time 28 day): 0.6 mg/dL
Ca ([…], time 28 day): 10.2 mg/dL
Cl ([…], time 28 day): 103 meq/L
DBIL ([…], time 28 day): 0 mg/dL
GLC ([…], time 28 day): 164 mg/dL
IP ([…], time 28 day): 6.9 mg/dL
K ([…], time 28 day): 4.6 meq/L
LDH ([…], time 28 day): 90.2 IU/L
Na ([…], time 28 day): 135.2 meq/L
PL ([…], time 28 day): 135.6 mg/dL
RALB ([…], time 28 day): 3.9 g/dL
TBIL ([…], time 28 day): 0.3 mg/dL
TC ([…], time 28 day): 60.8 mg/dL
TG ([…], time 28 day): 131.8 mg/dL
TP ([…], time 28 day): 6.4 g/dL
gamma-GTP ([…], time 28 day): 1.6 IU/L
